From ChEMBL document CHEMBL4706663, “Large-scale isolation and antitumor mechanism evaluation of compounds from the traditional Chinese medicine Cordyceps Militaris” (Eur J Med Chem, 2021)
The source made the active and inactive calls. The calls are words filed in the database; no cut-off is given here.

What was measured:
[1] = Antitumor activity against […] cancer cells xenografted in BALB/c mouse assessed as tumor weight at 27 mg/kg, ig administered every day for 10 days (reference value: 1.68 +/- 0.78 g); type: functional, Lewis lung carcinoma; details: time 10 day
[2] = Antitumor activity against […] cancer cells xenografted in BALB/c mouse assessed as lung weight at 240 mg/kg, ig administered every day for 10 days measured post last dose (reference value: 0.13 +/- 0.03 g); type: functional, Lewis lung carcinoma; details: time 10 day
[3] = Antitumor activity against […] cancer cells xenografted in BALB/c mouse assessed as lung weight at 80 mg/kg, ig administered every day for 10 days measured post last dose (reference value: 0.13 +/- 0.03 g); type: functional, Lewis lung carcinoma; details: time 10 day
[4] = Toxicity in […] lung cancer cells xenografted BALB/c mouse assessed as net weight at 27 mg/kg, ig administered every day for 10 days (reference value: 1.16 +/- 1.55 g); type: organism-based; details: in vivo, po, 240 h, time 10 day
[5] = Toxicity in […] lung cancer cells xenografted BALB/c mouse assessed as survival rate at 80 mg/kg, ig administered every day for 10 days (reference value: 100%); type: organism-based; details: in vivo, po, time 10 day
[6] = Antitumor activity against […] cells xenografted in KM mouse assessed as liver weight at 27 mg/kg, ig administered every day for 10 days measured post last dose (reference value: 1.57 +/- 0.3 g); type: functional; details: time 10 day
[7] = Toxicity in […] cells xenografted KM mouse assessed as net weight at 240 mg/kg, ig administered every day for 10 days (reference value: 9.45 +/- 4 g); type: organism-based; details: in vivo, po, 240 h, time 10 day
[8] = Toxicity in […] cells xenografted KM mouse assessed as net weight at 27 mg/kg, ig administered every day for 10 days (reference value: 9.45 +/- 4 g); type: organism-based; details: in vivo, po, 240 h, time 10 day
[9] = Toxicity in […] cells xenografted KM mouse assessed as survival rate at 240 mg/kg, ig administered every day for 10 days relative to control; type: organism-based; details: in vivo, po, time 10 day
[10] = molecular target: Tropomyosin alpha-4 chain (Homo sapiens) (UniProt P67936); test: Binding affinity to tropomyosin alpha-4 chain isoform 1 in human A549 cells by LC-MS/MS analysis; type: cell-based
Sequence of Tropomyosin alpha-4 chain (Homo sapiens) (P67936 whole entry, canonical isoform): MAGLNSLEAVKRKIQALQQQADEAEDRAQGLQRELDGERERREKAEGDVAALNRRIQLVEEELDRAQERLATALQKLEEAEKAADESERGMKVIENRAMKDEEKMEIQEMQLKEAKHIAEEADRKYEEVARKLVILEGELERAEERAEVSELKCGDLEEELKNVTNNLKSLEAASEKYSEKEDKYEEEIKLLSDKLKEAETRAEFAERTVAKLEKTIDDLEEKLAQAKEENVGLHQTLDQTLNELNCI

With `CC(C)[C@@H](C)/C=C/[C@@H](C)[C@H]1CC[C@H]2C3=CC=C4C[C@@H](O)CC[C@]4(C)[C@H]3CC[C@]12C` [ERGOSTEROL] the Activity [1] was 1.42 g, the Activity [2] was 0.13 g and the Activity [3] was 0.12 g. It also gave an Activity [4] of -0.36 g, a survival at 240 h [5] of 100% and an Activity [6] of 1.67 g. For the same compound, the Activity [7] was 5.7 g, the Activity [8] was 6.92 g and the survival at 240 h [9] was 100%. The Activity [10] was “Active”.
